# Test results from publication PMC7801110 (Journal of Enzyme Inhibition and Medicinal Chemistry, 2021).
# Entries after “also recorded” stand apart in the source; their conditions may differ.
# Experiments:
# [1] = tested on: insulin-degrading enzyme (IDE), His-Tag, rat, recombinant; assay: IDE (135 nM) in PBS (pH 7.4); conditions: 37 °C, up to 180 min
# [2] = molecular target: T1, IDE, His-Tag, rat, recombinant (Rattus norvegicus, UniProt P35559); assay: Insulin degradation by IDE in the presence of NPAF/NPFF (HPLC-MS); type: biochemical; conditions: PBS pH 7.4, 37 °C, LC-ESI/MS; for effect on insulin degradation by IDE after 3 h pre-incubation of the neuropeptide with IDE (NP fragments): NP 20 μM incubated 3 h with IDE 135 nM, then insulin 10 μM added, data not shown
# T1 construct: His-Tag; purchased Sigma Aldrich; host or cells: Spodoptera frugiperda
# T1 sequence (P35559 1-1019): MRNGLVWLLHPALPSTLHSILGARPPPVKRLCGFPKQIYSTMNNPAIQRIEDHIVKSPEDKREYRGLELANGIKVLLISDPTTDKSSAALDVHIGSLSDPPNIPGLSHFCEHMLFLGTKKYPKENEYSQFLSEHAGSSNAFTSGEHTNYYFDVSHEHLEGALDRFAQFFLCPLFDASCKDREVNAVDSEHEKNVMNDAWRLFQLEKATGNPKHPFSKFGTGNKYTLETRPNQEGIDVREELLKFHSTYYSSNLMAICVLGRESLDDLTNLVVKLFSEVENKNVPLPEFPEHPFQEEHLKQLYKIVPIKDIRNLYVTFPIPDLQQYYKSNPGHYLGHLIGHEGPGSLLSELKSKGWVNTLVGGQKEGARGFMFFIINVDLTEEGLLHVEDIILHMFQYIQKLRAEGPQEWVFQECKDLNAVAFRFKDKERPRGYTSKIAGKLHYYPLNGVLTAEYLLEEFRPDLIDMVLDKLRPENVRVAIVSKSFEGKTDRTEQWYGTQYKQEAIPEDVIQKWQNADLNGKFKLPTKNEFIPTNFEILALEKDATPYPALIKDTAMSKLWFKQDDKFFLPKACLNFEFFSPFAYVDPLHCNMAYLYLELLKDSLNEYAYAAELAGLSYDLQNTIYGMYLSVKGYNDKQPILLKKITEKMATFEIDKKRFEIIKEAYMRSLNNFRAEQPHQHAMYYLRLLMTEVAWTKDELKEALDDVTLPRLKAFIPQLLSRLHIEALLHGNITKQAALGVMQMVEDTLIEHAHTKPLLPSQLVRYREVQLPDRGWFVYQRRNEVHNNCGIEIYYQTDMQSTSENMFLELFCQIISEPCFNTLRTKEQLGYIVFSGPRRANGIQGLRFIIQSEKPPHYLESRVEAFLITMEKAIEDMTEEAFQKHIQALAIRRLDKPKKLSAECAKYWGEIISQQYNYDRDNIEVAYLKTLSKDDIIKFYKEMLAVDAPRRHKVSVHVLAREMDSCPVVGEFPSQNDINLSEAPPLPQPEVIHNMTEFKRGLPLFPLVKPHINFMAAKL
# Description: (§1) IDE, His-Tag, rat, recombinant, Spodoptera frugiperda, were purchased from Sigma Aldrich. NPAF, NPFF were manually synthesised by the solid-phase method using Fmoc chemistry. Peptides were purified by the high-performance liquid chromatography (HPLC) and tested for their purity using ESI MS. […] The liquid chromatography-electrospray ionisation mass spectrometry (LC-ESI/MS) experiments were carried out by using a LCQ Deca XP instrument (Thermo Electron Corporation, USA). All solutions were incubated in PBS (pH 7.4) at 37 °C. After incubations, sample aliquots at time 0; 10; 30; 45; 60 and 180 min were taken and a 10% solution of TFA was added to the aliquots in order to achieve a final TFA concentration of 1% in all the samples to stop the enzymatic reaction. Samples were kept at 4 °C before HPLC-MS analysis. […] Separation of the generated fragments was carried out by the reversed-phase chromatography using a Jupiter® 5 µm C4 300 Å (LC Column 150 × 4.6 mm) column from Phenomenex at the flow rate of 250 μl/min. MS-MS experiments were used for final identification of the peptide fragments. All methodological details and a semiquantitative method were already described in our previous work, and the absolute intensities of the peaks were normalised to the total ion current[18]^,[24]^,[25]. The experiments were repeated three times to ensure reproducibility and estimate the error bars on the HPLC-MS results.
# [3] = molecular target: T1, IDE, His-Tag, rat, recombinant; assay: HPLC-MS enzymatic assay: degradation of NPFF and NPAF by IDE; type: in vitro ADME; conditions: PBS pH 7.4, 37 °C, LC-ESI/MS; for cleavage of the peptide by IDE: stability with named protease IDE (135 nM), peptide 20 μM, aliquots 0-180 min, stopped with 1% TFA, repeated three times
# Description: as §1, with “NPAF, NPFF were manually synthesised by the solid-phase method using Fmoc chemistry.” left out, “MS. Purity was above 95%.” for “MS.”, “After incubations, sample aliquots at time 0; 10; 30; 45; 60 and 180 min were taken and a 10% solution of TFA was added to the aliquots in order to achieve a final TFA concentration of 1% in all the samples to stop the enzymatic reaction.” left out
Substance,cleaved bond [1],effect on insulin degradation by IDE after 3 h pre-incubation of the neuropeptide with IDE (NP fragments) [2],cleavage of the peptide by IDE [3],also measured
HAla-Gly-Glu-Gly-Leu-Ser-Ser-Pro-Phe-Trp-Ser-Leu-Ala-Ala-Pro-Gln-Arg-PheOH,"Gly-Glu; also recorded: Ser-Leu, major, 10 min; also recorded: Leu-Ala, major, 10 min; also recorded: Gln-Arg, major, 10 min",,,
"HAla-Gly-Glu-Gly-Leu-Ser-Ser-Pro-Phe-Trp-Ser-Leu-Ala-Ala-Pro-Gln-Arg-PheOH [NPAF, neuropeptide generated from the NPFF precursor (pro-NPFF(A)), manually synthesised by Fmoc solid-phase method]",,no activation effect,able to cleave,"effect of the neuropeptide on insulin degradation by IDE (insulin molecular peak decrease) ([2]; NP 20 μM co-incubated with insulin 10 μM and IDE 135 nM, performed three times): activating effect"
"HAla-Gly-Glu-Gly-Leu-Ser-Ser-Pro-Phe-Trp-Ser-Leu-Ala-Ala-Pro-GlnOH [cryptic peptide at 1617.8 m/z, cryptic peptide formed from NPAF by IDE, detected at m/z 1617.8]",,,,"incubation time at which the relative intensity of the cryptic peptide reaches a maximum ([3]; NPAF 20 μM with IDE 135 nM, intensities normalised to total ion current, abundance diminishes afterwards): about 30 min"
HPhe-Leu-Phe-Gln-Pro-Gln-Arg-PheOH,"Gln-Arg, major, 10 min",,,
"HPhe-Leu-Phe-Gln-Pro-Gln-Arg-PheOH [NPFF, neuropeptide generated from the NPFF precursor (pro-NPFF(A)), manually synthesised by Fmoc solid-phase method]",,no activation effect,able to cleave,
